Laboratory results reported in ChEMBL document CHEMBL4680293, “Tubulin inhibitory activity of a novel colchicine-binding compounds based on a dinaphthospiropyranran scaffold” (Bioorg Med Chem, 2021).

What was measured:
NCI-H322M = assay: Anti-cancer activity against human NCI-H322M cells assessed as cell growth inhibition measured after 48 hrs by SRB method; format: functional, cell-based
CCRF-CEM = assay: Anti-cancer activity against human CCRF-CEM cells assessed as cell growth inhibition measured after 48 hrs by SRB assay; format: functional, cell-based
COLO 205 = assay: Anti-cancer activity against human COLO205 cells assessed as cell growth inhibition measured after 48 hrs by SRB method; format: functional, cell-based
NCI-H23 = assay: Anti-cancer activity against human NCI-H23 cells assessed as cell growth inhibition measured after 48 hrs by SRB method; format: functional, cell-based
NCI-H522 = assay: Anti-cancer activity against human NCI-H522 cells assessed as cell growth inhibition measured after 48 hrs by SRB method; format: functional, cell-based
A498 = assay: Anti-cancer activity against human A498 cells assessed as cell growth inhibition measured after 48 hrs by SRB method; format: functional, cell-based
NCI-H226 = assay: Anti-cancer activity against human NCI-H226 cells assessed as cell growth inhibition measured after 48 hrs by SRB method; format: functional, cell-based
BT-549 = assay: Anti-cancer activity against human BT-549 cells assessed as cell growth inhibition measured after 48 hrs by SRB method; format: functional, cell-based
UACC-62 = assay: Anti-cancer activity against human UACC-62 cells assessed as cell growth inhibition measured after 48 hrs by SRB method; format: functional, cell-based
SK-MEL-5 = assay: Anti-cancer activity against human SK-MEL-5 cells assessed as cell growth inhibition measured after 48 hrs by SRB method; format: functional, cell-based
A549 = assay: Anti-cancer activity against human A549/ATCC cells assessed as cell growth inhibition measured after 48 hrs by SRB method; format: functional, cell-based
RXF 393 = assay: Anti-cancer activity against human RXF 393 cells assessed as cell growth inhibition measured after 48 hrs by SRB method; format: functional, cell-based
RPMI-8226 = assay: Anti-cancer activity against human RPMI-8226 cells assessed as cell growth inhibition measured after 48 hrs by SRB method; format: functional, cell-based
SF-539 = assay: Anti-cancer activity against human SF-539 cells assessed as cell growth inhibition measured after 48 hrs by SRB method; format: functional, cell-based
[1] = Anti-cancer activity against human colon cancer cells assessed as cell growth inhibition measured after 48 hrs by SRB method; format: functional; conditions: Colon cancer cell line
HL-60(TB) = assay: Anti-cancer activity against human HL-60(TB) cells assessed as cell growth inhibition measured after 48 hrs by SRB method; format: functional, cell-based
TK-10 = assay: Anti-cancer activity against human TK-10 cells assessed as cell growth inhibition measured after 48 hrs by SRB method; format: functional, cell-based
[2] = Anti-cancer activity against human non-small lung cancer cells assessed as cell growth inhibition measured after 48 hrs by SRB method; format: functional; conditions: Non-small cell lung cancer cell line
UO-31 = assay: Anti-cancer activity against human UO-31 cells assessed as cell growth inhibition measured after 48 hrs by SRB method; format: functional, cell-based
EKVX = assay: Anti-cancer activity against human EKVX cells assessed as cell growth inhibition measured after 48 hrs by SRB method; format: functional, cell-based
PC-3 = assay: Anti-cancer activity against human PC-3 cells assessed as cell growth inhibition measured after 48 hrs by SRB method; format: functional, cell-based
SR = assay: Anti-cancer activity against human SR cells assessed as cell growth inhibition measured after 48 hrs by SRB method; format: functional, cell-based
HCC 2998 = assay: Anti-cancer activity against human HCC2998 cells assessed as cell growth inhibition measured after 48 hrs by SRB method; format: functional, cell-based
MCF7 = assay: Anti-cancer activity against human MCF-7 cells assessed as cell growth inhibition measured after 48 hrs by SRB method; format: functional, cell-based
M14 = assay: Anti-cancer activity against human M14 cells assessed as cell growth inhibition measured after 48 hrs by SRB method; format: functional, cell-based
SF-268 = assay: Anti-cancer activity against human SF-268 cells assessed as cell growth inhibition measured after 48 hrs by SRB method; format: functional, cell-based
SK-MEL-2 = assay: Anti-cancer activity against human SK-MEL-2 cells assessed as cell growth inhibition measured after 48 hrs by SRB method; format: functional, cell-based

With `C1=C2CNCC3=Cc4c(ccc5ccccc45)OC23Oc2ccc3ccccc3c21` the IC50 (NCI-H322M; 48 h) was 27.5 µM, the GI50 (NCI-H322M; time 48 hrs) was 10.7 µM and the TGI (NCI-H322M; time 48 hrs) was 33.1 µM. The IC50 (CCRF-CEM; 48 h) was 5.37 µM, the GI50 (CCRF-CEM; time 48 hrs) was 3.63 µM and the TGI (CCRF-CEM; time 48 hrs) was 100 µM. For the same molecule, the CC50 (CCRF-CEM; time 48 hrs, read-out: LC50 (the source's name)) was 4 µM, the IC50 (COLO 205; COLO 205, 48 h) was 3.72 µM and the GI50 (COLO 205; COLO 205, time 48 hrs) was 2.09 µM. The TGI (COLO 205; COLO 205, time 48 hrs) was 4.27 µM, the CC50 (COLO 205; COLO 205, time 48 hrs, read-out: LC50 (the source's name)) was 5.07 µM and the IC50 (NCI-H23; NCI-H23, 48 h) was 20.9 µM. The GI50 (NCI-H23; NCI-H23, time 48 hrs) was 6.92 µM, the TGI (NCI-H23; NCI-H23, time 48 hrs) was 31.6 µM and the IC50 (NCI-H522; NCI-H522, 48 h) was 9.55 µM. The GI50 (NCI-H522; NCI-H522, time 48 hrs) was 3.02 µM, the TGI (NCI-H522; NCI-H522, time 48 hrs) was 13.2 µM and the CC50 (NCI-H522; NCI-H522, time 48 hrs, read-out: LC50 (the source's name)) was 4.15 µM. It also gave an IC50 (A498; A498, 48 h) of 16.2 µM, a GI50 (A498; A498, time 48 hrs) of 3.89 µM and a TGI (A498; A498, time 48 hrs) of 17 µM. For the same molecule, the CC50 (A498; A498, time 48 hrs, read-out: LC50 (the source's name)) was 4.34 µM, the IC50 (NCI-H226; NCI-H226, 48 h) was 25.1 µM and the GI50 (NCI-H226; NCI-H226, time 48 hrs) was 10.5 µM. For the same molecule, the TGI (NCI-H226; NCI-H226, time 48 hrs) was 27.5 µM, the IC50 (BT-549; BT-549, 48 h) was 40.7 µM and the GI50 (BT-549; BT-549, time 48 hrs) was 11.2 µM. It also gave a TGI (BT-549; BT-549, time 48 hrs) of 40.7 µM, a CC50 (BT-549; BT-549, time 48 hrs, read-out: LC50 (the source's name)) of 4 µM and an IC50 (UACC-62; UACC-62, 48 h) of 12.9 µM. For the same molecule, the GI50 (UACC-62; UACC-62, time 48 hrs) was 5.01 µM, the LC50 (50% lethal concentration) (UACC-62; UACC-62, time 48 hrs) was 4.16 µM and the TGI (UACC-62; UACC-62, time 48 hrs) was 21.9 µM. For the same molecule, the IC50 (SK-MEL-5; SK-MEL-5, 48 h) was 6.03 µM, the GI50 (SK-MEL-5; SK-MEL-5, time 48 hrs) was 3.16 µM and the TGI (SK-MEL-5; SK-MEL-5, time 48 hrs) was 13.8 µM. For the same molecule, the CC50 (SK-MEL-5; SK-MEL-5, time 48 hrs, read-out: LC50 (the source's name)) was 4.33 µM, the IC50 (A549; A549, 48 h) was 6.92 µM and the GI50 (A549; A549, time 48 hrs) was 4.47 µM. For the same molecule, the TGI (A549; A549, time 48 hrs) was 20.4 µM, the CC50 (A549; A549, time 48 hrs, read-out: LC50 (the source's name)) was 4.14 µM and the IC50 (RXF 393; RXF 393, 48 h) was 5.01 µM. It also gave a GI50 (RXF 393; RXF 393, time 48 hrs) of 1.78 µM, a TGI (RXF 393; RXF 393, time 48 hrs) of 6.17 µM and a CC50 (RXF 393; RXF 393, time 48 hrs, read-out: LC50 (the source's name)) of 4.32 µM. It also gave an IC50 (RPMI-8226; RPMI-8226, 48 h) of 13.8 µM, a GI50 (RPMI-8226; RPMI-8226, time 48 hrs) of 5.5 µM and a TGI (RPMI-8226; RPMI-8226, time 48 hrs) of 64.6 µM. It also gave a CC50 (RPMI-8226; RPMI-8226, time 48 hrs, read-out: LC50 (the source's name)) of 4 µM, an IC50 (SF-539; SF-539, 48 h) of 6.03 µM and a GI50 (SF-539; SF-539, time 48 hrs) of 3.39 µM. The LC50 (concentration killing 50% of cells) (SF-539; SF-539, time 48 hrs) was 4 µM, the TGI (SF-539; SF-539, time 48 hrs) was 14.8 µM and the GI50 [1] was 3.09 µM. The IC50 (HL-60(TB); HL-60, 48 h) was 5.32 µM, the GI50 (HL-60(TB); HL-60, time 48 hrs) was 5.57 µM and the TGI (HL-60(TB); HL-60, time 48 hrs) was 5.11 µM. It also gave a CC50 (HL-60(TB); HL-60, time 48 hrs, read-out: LC50 (the source's name)) of 4.07 µM, an IC50 (TK-10; TK-10, 48 h) of 26.9 µM and a GI50 (TK-10; TK-10, time 48 hrs) of 9.12 µM. It also gave a TGI (TK-10; TK-10, time 48 hrs) of 27.5 µM, a GI50 [2] of 5.13 µM and an IC50 (UO-31; UO-31, 48 h) of 17.4 µM. It also gave a GI50 (UO-31; UO-31, time 48 hrs) of 3.55 µM, a TGI (UO-31; UO-31, time 48 hrs) of 21.4 µM and a CC50 (UO-31; UO-31, time 48 hrs, read-out: LC50 (the source's name)) of 4.16 µM. The IC50 (EKVX; 48 h) was 20 µM, the GI50 (EKVX; time 48 hrs) was 5.75 µM and the TGI (EKVX; time 48 hrs) was 33.9 µM. It also gave an IC50 (PC-3; PC-3, 48 h) of 10 µM, a GI50 (PC-3; PC-3, time 48 hrs) of 3.47 µM and an LC50 (PC-3; PC-3, time 48 hrs) of 4.16 µM. It also gave a TGI (PC-3; PC-3, time 48 hrs) of 18.2 µM, an IC50 (SR; 48 h) of 3.8 µM and a GI50 (SR; time 48 hrs) of 2.19 µM. For the same molecule, the LC50 (SR; time 48 hrs) was 4 µM, the TGI (SR; time 48 hrs) was 5.37 µM and the IC50 (HCC 2998; HCC 2998, 48 h) was 8.51 µM. It also gave a GI50 (HCC 2998; HCC 2998, time 48 hrs) of 3.98 µM, an LC50 (lethal concentration, 50% cell kill) (HCC 2998; HCC 2998, time 48 hrs) of 4.11 µM and a TGI (HCC 2998; HCC 2998, time 48 hrs) of 19.5 µM. The IC50 (MCF7; MCF7, 48 h) was 3.98 µM, the GI50 (MCF7; MCF7, time 48 hrs) was 2.82 µM and the TGI (MCF7; MCF7, time 48 hrs) was 12.6 µM. The CC50 (MCF7; MCF7, time 48 hrs, read-out: LC50 (the source's name)) was 4.26 µM, the IC50 (M14; M14, 48 h) was 3.8 µM and the GI50 (M14; M14, time 48 hrs) was 2.19 µM. It also gave a TGI (M14; M14, time 48 hrs) of 5.13 µM, a CC50 (M14; M14, time 48 hrs, read-out: LC50 (the source's name)) of 4.56 µM and an IC50 (SF-268; SF-268, 48 h) of 12.3 µM. The GI50 (SF-268; SF-268, time 48 hrs) was 5.62 µM, the TGI (SF-268; SF-268, time 48 hrs) was 22.4 µM and the CC50 (SF-268; SF-268, time 48 hrs, read-out: LC50 (the source's name)) was 4.15 µM. For the same molecule, the IC50 (SK-MEL-2; SK-MEL-2, 48 h) was 25.7 µM, the GI50 (SK-MEL-2; SK-MEL-2, time 48 hrs) was 5.5 µM and the TGI (SK-MEL-2; SK-MEL-2, time 48 hrs) was 22.9 µM. For the same molecule, the CC50 (SK-MEL-2; SK-MEL-2, time 48 hrs, read-out: LC50 (the source's name)) was 4.03 µM.
